The values below come from patent US8038984B2, “Membrane-permeant peptide complexes for treatment of sepsis” (Washington University, priority 1998, dated 2011).

Square brackets hold non-standard residues; d marks the D form. Ends that are not written are not given here. dOrn = NCCC[C@@H](N)C(=O)O; βAla = NCCC(=O)O

For assay [1], the system named is human lymphocytes. In words: Laser scanning confocal microscopy of internalization into human lymphocytes. The class given is cell-based. Particulars: 1 μM. As to the method: Freshly isolated human lymphocytes were incubated with fluorescently labeled Tat-BH4 peptide to confirm intracellular localization of the functional permeant peptide. For labeling, cells were suspended for 30 minutes in modified Earl's balanced salt solution containing 1 μM of the fluorescently labeled TAT-BH4. Control cells were treated identically except no labeled TAT-BH4 was added. Following fixation for 10 minutes in 4% paraformaldehyde, cells were analyzed for peptide internalization via detection of fluorescence by confocal microscopy using an inverted Zeiss Axiovert 200 laser scanning confocal microscope couple to a Zeiss LSM 5 PASCAL fitted with a 488 nm excitation Argon laser and a 520 nm bandpass emission filter. All images were obtained using a water immersion lens (40×) and identical instrument settings.

Assay [2] concerns human lymphocytes. In words: E. coli bacterial-induced lymphocyte apoptosis, staining for active caspase 3. The class given is cell-based. Particulars: human lymphocytes, live E. coli ~5 hours. As to the method: (§1) Thymocytes and splenocytes were obtained from CLP and sham-treated mice ˜20 hours postoperatively. The APO-BRDU™ kit (Phoenix Flow Systems, San Diego, Calif.) was employed for flow cytometric quantitation of TUNEL. Antibodies to active caspase 3 (Cell Signaling—Catalog #9664) were used in the flow cytometry and/or TUNEL assay.
Lymphocytes were harvested from peripheral blood obtained from 6 healthy volunteers using a ficol gradient separation technique. Approximately 1×10^6 lymphocytes were plated in individual transwell containers. E. coli bacteria (strain ATCC 25922), that had been grown overnight in trypticase soy broth were added to a separate compartment of the transwell chamber separated from direct contact with the lymphocytes by a 0.02 micron filter (25 μl of bacteria at 3×10^9 CFUs added to 1 ml volume.

The test system of assay [3] is sepsis-induced lymphocyte apoptosis. In words: Cecal ligation and puncture (CLP) sepsis model, lymphocyte apoptosis by active caspase 3. The settings on record: mice, 1 mg by mini-osmotic pump plus additional 9.5 mg dose i.p. In kind it is in vivo, C57BL6/J mice. The procedure:
C57BL6/J male mice were housed for at least one week before manipulations. Mice were anesthetized with halothane and an abdominal incision was performed. The cecum was identified, ligated, and punctured with a #30 gauge needle. The abdomen was closed in two layers and 1 cc of 0.9% saline was administered subcutaneously.
as §1
The pumps were implanted approximately 3 hours prior to CLP because it requires ˜3 hours for pumps to activate and deliver steady state levels of compound.
The pumps were not activated until approximately three hours after implantation. […] Spleens, thymi and blood were harvested and examined for apoptosis via staining for active caspase 3.

Turning to “(d) ac-C(FM)RKKRR-Orn-RRR-β-A-(I)-SNRELVVDFLSYKLSQKGYS-COOH ([dR][dK][dK][dR][dR][dOrn][dR][dR][dR][βAla]SNRELVVDFLSYKLSQKGYS-OH; not fully specified (N-terminus)) [fluorescein conjugated TAT-BH4]”, the “internalization into human lymphocytes” value in assay [1] is “located intracellular”.

As for “(d)-Ac-RKKRR-Orn-RRR-β-A-(l)-SNRELVVDFLSYKLSQKGYS-COOH (Ac-[dR][dK][dK][dR][dR][dOrn][dR][dR][dR][βAla]SNRELVVDFLSYKLSQKGYS-OH; SMILES CC(=O)N[C@H](CCCNC(=N)N)C(=O)N[C@H](CCCCN)C(=O)N[C@H](CCCCN)C(=O)N[C@H](CCCNC(=N)N)C(=O)N[C@H](CCCNC(=N)N)C(=O)N[C@H](CCCN)C(=O)N[C@H](CCCNC(=N)N)C(=O)N[C@H](CCCNC(=N)N)C(=O)N[C@H](CCCNC(=N)N)C(=O)NCCC(=O)N[C@@H](CO)C(=O)N[C@@H](CC(N)=O)C(=O)N[C@@H](CCCNC(=N)N)C(=O)N[C@@H](CCC(=O)O)C(=O)N[C@@H](CC(C)C)C(=O)N[C@H](C(=O)N[C@H](C(=O)N[C@@H](CC(=O)O)C(=O)N[C@@H](Cc1ccccc1)C(=O)N[C@@H](CC(C)C)C(=O)N[C@@H](CO)C(=O)N[C@@H](Cc1ccc(O)cc1)C(=O)N[C@@H](CCCCN)C(=O)N[C@@H](CC(C)C)C(=O)N[C@@H](CO)C(=O)N[C@@H](CCC(N)=O)C(=O)N[C@@H](CCCCN)C(=O)NCC(=O)N[C@@H](Cc1ccc(O)cc1)C(=O)N[C@@H](CO)C(=O)O)C(C)C)C(C)C) [TAT-BH4]”, the bacterial-induced apoptosis entry in assay [2] (500 nM) and in assay [2] (1 μM) was “significant decrease” throughout. In addition, the “sepsis-induced CD3 T cell and B cell apoptosis in the spleen” value in assay [3] was “ameliorated the increase”.
